Calls of active or inactive are those of the source. The rule behind the calls is not given here.
Tests used:
[1] = biological target: Vascular endothelial growth factor receptor 2 (Homo sapiens) (UniProt P35968); assay: KDR Invitrogen Lab (UK) kinase screen (BI); settings: Compound concentration 1.0 uM
[2] = biological target: Beta-2 adrenergic receptor (Homo sapiens) (UniProt P07550); settings: Compound concentration 10.0 uM
[3] = biological target: 5-hydroxytryptamine receptor 2B (Homo sapiens) (UniProt P41595); assay: 5HT2B/H AG Eurofins SafetyScreen44 (BI); settings: filed as agonist, Compound concentration 10.0 uM
[4] = biological target: Tyrosine-protein kinase ABL1 (Homo sapiens) (UniProt P00519); assay: ABL1 Invitrogen Lab (UK) kinase screen (BI); settings: Compound concentration 1.0 uM
[5] = biological target: Muscarinic acetylcholine receptor M3 (Homo sapiens, UniProt P20309); assay: GPCRScan assay: inhibition of M3; design: radioligand conc. used [nm] 0.3 – 1.0, parental cells stable CHO
[6] = biological target: Alpha-2A adrenergic receptor (Homo sapiens) (UniProt P08913); settings: Compound concentration 10.0 uM
[7] = biological target: Dual specificity protein kinase CLK1 (Homo sapiens) (UniProt P49759); assay: CLK1 Invitrogen Lab (UK) kinase screen (BI); settings: Compound concentration 1.0 uM
[8] = biological target: Kappa-type opioid receptor (Homo sapiens) (UniProt P41145); settings: Compound concentration 10.0 uM
[9] = biological target: Epidermal growth factor receptor (Homo sapiens) (UniProt P00533); assay: EGFR Invitrogen Lab (UK) kinase screen (BI); settings: Compound concentration 1.0 uM
[10] = biological target: 5-hydroxytryptamine receptor 2B (Homo sapiens) (UniProt P41595); settings: Compound concentration 10.0 uM
[11] = biological target: GABA-A receptor; anion channel (Rattus norvegicus) (UniProt O09028+P15431+P18506+P18508+P19969+P20236+P23574+P23576+P28471+P28473+P30191+P62813+P63079+P63138+Q91ZM7+Q9ES14); settings: Compound concentration 10.0 uM
[12] = biological target: D(3) dopamine receptor (Homo sapiens) (UniProt P35462); settings: Compound concentration 10.0 uM
[13] = biological target: Protein kinase C alpha type (Homo sapiens) (UniProt P17252); assay: PRKCA Invitrogen Lab (UK) kinase screen (BI); settings: Compound concentration 1.0 uM
[14] = biological target: Alpha-1A adrenergic receptor (Homo sapiens) (UniProt P35348); assay: ALPHA1AH_ANTAG Eurofins SafetyScreen44 (BI); settings: filed as antagonist, Compound concentration 10.0 uM
hERG (KCNH2) = hERG (KCNH2) (Homo sapiens, UniProt Q12809); assay: HERG_DOFETILIDE Eurofins SafetyScreen44 (BI); settings: probe [3H]dofetilide, compound concentration 10 uM, read-out: % Ctrl
[15] = biological target: RAC-beta serine/threonine-protein kinase (Homo sapiens) (UniProt P31751); assay: AKT2 Invitrogen Lab (UK) kinase screen (BI); settings: Compound concentration 1.0 uM
[16] = biological target: D(1B) dopamine receptor (Homo sapiens) (UniProt P21918); settings: Compound concentration 10.0 uM
[17] = biological target: Kappa-type opioid receptor (Homo sapiens) (UniProt P41145); assay: KAPPA(KOP)_HU Eurofins SafetyScreen44 (BI); settings: Compound concentration 10.0 uM
[18] = biological target: Casein kinase I isoform alpha (Homo sapiens) (UniProt P48729); assay: CSNK1A1 Invitrogen Lab (UK) kinase screen (BI); settings: Compound concentration 1.0 uM
[19] = biological target: MAP kinase-activated protein kinase 3 (Homo sapiens) (UniProt Q16644); assay: MAPKAPK3 Invitrogen Lab (UK) kinase screen (BI); settings: Compound concentration 1.0 uM
[20] = biological target: Delta-type opioid receptor (Homo sapiens) (UniProt P41143); settings: Compound concentration 10.0 uM
[21] = biological target: Proto-oncogene tyrosine-protein kinase Src (Homo sapiens) (UniProt P12931); assay: SRC Invitrogen Lab (UK) kinase screen (BI); settings: Compound concentration 1.0 uM
[22] = biological target: Platelet-derived growth factor receptor alpha (Homo sapiens) (UniProt P16234); assay: PDGFRA Invitrogen Lab (UK) kinase screen (BI); settings: Compound concentration 1.0 uM
[23] = biological target: Prostaglandin G/H synthase 2 (Homo sapiens) (UniProt P35354); assay: COX-2 Eurofins SafetyScreen44 (BI); settings: Compound concentration 10.0 uM
[24] = biological target: Sodium-dependent serotonin transporter (Homo sapiens) (UniProt P31645); settings: Compound concentration 10.0 uM
[25] = biological target: Sodium-dependent noradrenaline transporter (Homo sapiens) (UniProt P23975); settings: Compound concentration 10.0 uM
[26] = biological target: Serine/threonine-protein kinase Chk2 (Homo sapiens) (UniProt O96017); assay: CHEK2 Invitrogen Lab (UK) kinase screen (BI); settings: Compound concentration 1.0 uM
[27] = biological target: 5-hydroxytryptamine receptor 1A (Homo sapiens) (UniProt P08908); assay: 5HT1A/H Eurofins SafetyScreen44 (BI); settings: Compound concentration 10.0 uM
[28] = biological target: Prostaglandin G/H synthase 1 (Homo sapiens) (UniProt P23219); assay: COX-1 Eurofins SafetyScreen44 (BI); settings: Compound concentration 10.0 uM
[29] = biological target: Muscarinic acetylcholine receptor M1 (Homo sapiens) (UniProt P11229); assay: M1/H Eurofins SafetyScreen44 (BI); settings: Compound concentration 10.0 uM
[30] = biological target: D(2) dopamine receptor (Homo sapiens) (UniProt P14416); settings: Compound concentration 10.0 uM
[31] = biological target: Serine/threonine-protein kinase 3 (Homo sapiens) (UniProt Q13188); assay: STK3 Invitrogen Lab (UK) kinase screen (BI); settings: Compound concentration 1.0 uM
[32] = biological target: B-cell lymphoma 6 protein (Homo sapiens, UniProt P41182); assay: SPR (BCL6), Ontario institute for cancer research
[33] = biological target: 5-hydroxytryptamine receptor 3A (Homo sapiens) (UniProt P46098); assay: 5HT3/H Eurofins SafetyScreen44 (BI); settings: Compound concentration 10.0 uM
[34] = biological target: Sigma intracellular receptor 2 (Homo sapiens) (UniProt Q5BJF2); settings: Compound concentration 10.0 uM
[35] = biological target: Zinc finger and BTB domain-containing protein 32 (Homo sapiens, UniProt Q9Y2Y4); assay: SPR (ZBTB32), Ontario institute for cancer research
[36] = biological target: Leucine-rich repeat serine/threonine-protein kinase 2 (Homo sapiens) (UniProt Q5S007); assay: LRRK2 Invitrogen Lab (UK) kinase screen (BI); settings: Compound concentration 1.0 uM
[37] = biological target: RAF proto-oncogene serine/threonine-protein kinase (Homo sapiens) (UniProt P04049); assay: RAF1 Invitrogen Lab (UK) kinase screen (BI); settings: Compound concentration 1.0 uM
[38] = biological target: Androgen receptor (Homo sapiens) (UniProt P10275); assay: ANDROGEN/H Eurofins SafetyScreen44 (BI); settings: Compound concentration 10.0 uM
[39] = biological target: Mu-type opioid receptor (Homo sapiens) (UniProt P35372); settings: Compound concentration 10.0 uM
[40] = biological target: AMP-activated protein kinase (AMPK) alpha-1/beta-1/gamma-1 (Homo sapiens) (UniProt P54619+Q9Y478+Q13131); assay: AMPK A1B1G1 Invitrogen Lab (UK) kinase screen (BI); type: protein-complex assay; settings: Compound concentration 1.0 uM
[41] = biological target: Phosphatidylinositol 4,5-bisphosphate 3-kinase catalytic subunit gamma isoform (Homo sapiens) (UniProt P48736); assay: PIK3CG Invitrogen Lab (UK) kinase screen (BI); settings: Compound concentration 1.0 uM

Kappa-type opioid receptor (Homo sapiens), sequence (P41145 whole entry, canonical isoform): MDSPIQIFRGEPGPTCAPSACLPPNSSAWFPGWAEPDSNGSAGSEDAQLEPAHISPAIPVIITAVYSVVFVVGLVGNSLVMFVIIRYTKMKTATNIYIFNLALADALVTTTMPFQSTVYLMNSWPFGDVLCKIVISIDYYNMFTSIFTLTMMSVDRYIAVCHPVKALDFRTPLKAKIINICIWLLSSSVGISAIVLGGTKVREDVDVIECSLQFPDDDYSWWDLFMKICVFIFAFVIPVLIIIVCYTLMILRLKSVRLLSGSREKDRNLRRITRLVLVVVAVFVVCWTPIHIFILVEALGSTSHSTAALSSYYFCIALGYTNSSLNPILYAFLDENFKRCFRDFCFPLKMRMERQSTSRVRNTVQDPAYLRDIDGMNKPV
5-hydroxytryptamine receptor 2B (Homo sapiens), sequence (P41595 whole entry): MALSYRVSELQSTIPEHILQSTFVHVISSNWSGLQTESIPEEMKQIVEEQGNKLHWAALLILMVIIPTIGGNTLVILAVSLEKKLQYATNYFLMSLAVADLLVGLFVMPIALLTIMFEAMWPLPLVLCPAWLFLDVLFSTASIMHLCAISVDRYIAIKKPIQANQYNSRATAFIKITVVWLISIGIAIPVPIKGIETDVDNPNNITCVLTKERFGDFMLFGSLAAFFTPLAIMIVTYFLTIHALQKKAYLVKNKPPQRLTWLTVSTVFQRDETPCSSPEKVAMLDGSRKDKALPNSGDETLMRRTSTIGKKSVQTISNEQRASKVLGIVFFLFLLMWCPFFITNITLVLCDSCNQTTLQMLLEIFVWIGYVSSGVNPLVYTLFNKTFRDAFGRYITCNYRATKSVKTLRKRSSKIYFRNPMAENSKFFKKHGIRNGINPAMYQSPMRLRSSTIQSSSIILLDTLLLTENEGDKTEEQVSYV
Delta-type opioid receptor (Homo sapiens), sequence (P41143 whole entry): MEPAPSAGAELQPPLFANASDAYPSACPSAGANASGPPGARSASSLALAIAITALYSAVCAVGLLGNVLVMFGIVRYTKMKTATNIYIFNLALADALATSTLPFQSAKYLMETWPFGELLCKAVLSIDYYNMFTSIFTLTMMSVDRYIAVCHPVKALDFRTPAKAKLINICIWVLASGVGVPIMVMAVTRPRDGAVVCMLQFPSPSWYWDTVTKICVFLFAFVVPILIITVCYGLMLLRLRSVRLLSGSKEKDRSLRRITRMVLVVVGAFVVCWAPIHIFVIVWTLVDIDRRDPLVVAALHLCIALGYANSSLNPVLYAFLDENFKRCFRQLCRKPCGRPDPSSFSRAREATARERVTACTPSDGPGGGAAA
Mu-type opioid receptor (Homo sapiens), sequence (P35372 whole entry): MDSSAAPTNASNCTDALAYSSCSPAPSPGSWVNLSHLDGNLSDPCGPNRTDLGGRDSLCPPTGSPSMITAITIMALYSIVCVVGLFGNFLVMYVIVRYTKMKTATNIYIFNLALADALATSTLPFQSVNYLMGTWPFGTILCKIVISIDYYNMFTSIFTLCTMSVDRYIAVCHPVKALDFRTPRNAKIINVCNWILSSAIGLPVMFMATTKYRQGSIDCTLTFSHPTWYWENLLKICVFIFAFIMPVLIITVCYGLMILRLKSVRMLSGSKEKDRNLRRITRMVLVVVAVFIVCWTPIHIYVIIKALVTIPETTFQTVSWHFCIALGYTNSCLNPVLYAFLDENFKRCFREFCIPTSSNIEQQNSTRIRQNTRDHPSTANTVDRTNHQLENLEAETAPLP
D(1B) dopamine receptor (Homo sapiens), sequence (P21918 whole entry): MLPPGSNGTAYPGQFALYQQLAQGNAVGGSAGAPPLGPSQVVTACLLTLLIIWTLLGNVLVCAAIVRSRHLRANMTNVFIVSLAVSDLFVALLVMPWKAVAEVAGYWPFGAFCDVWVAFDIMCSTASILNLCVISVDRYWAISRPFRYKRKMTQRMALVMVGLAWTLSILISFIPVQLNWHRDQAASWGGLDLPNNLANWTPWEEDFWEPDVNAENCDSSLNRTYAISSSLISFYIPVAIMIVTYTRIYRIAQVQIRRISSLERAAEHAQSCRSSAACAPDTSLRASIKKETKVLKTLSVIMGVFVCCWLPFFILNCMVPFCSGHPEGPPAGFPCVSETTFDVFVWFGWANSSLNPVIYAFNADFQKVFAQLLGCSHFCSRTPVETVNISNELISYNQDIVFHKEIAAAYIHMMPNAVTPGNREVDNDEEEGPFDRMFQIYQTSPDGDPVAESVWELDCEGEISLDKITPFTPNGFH
Sigma intracellular receptor 2 (Homo sapiens), sequence (Q5BJF2 whole entry, the tested form may be a part): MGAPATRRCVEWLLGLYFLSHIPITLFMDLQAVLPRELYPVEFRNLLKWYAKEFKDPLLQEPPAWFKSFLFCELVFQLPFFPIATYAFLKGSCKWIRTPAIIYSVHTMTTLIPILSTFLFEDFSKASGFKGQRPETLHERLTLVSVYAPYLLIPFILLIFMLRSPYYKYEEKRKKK
Beta-2 adrenergic receptor (Homo sapiens), sequence (P07550 whole entry, looked up): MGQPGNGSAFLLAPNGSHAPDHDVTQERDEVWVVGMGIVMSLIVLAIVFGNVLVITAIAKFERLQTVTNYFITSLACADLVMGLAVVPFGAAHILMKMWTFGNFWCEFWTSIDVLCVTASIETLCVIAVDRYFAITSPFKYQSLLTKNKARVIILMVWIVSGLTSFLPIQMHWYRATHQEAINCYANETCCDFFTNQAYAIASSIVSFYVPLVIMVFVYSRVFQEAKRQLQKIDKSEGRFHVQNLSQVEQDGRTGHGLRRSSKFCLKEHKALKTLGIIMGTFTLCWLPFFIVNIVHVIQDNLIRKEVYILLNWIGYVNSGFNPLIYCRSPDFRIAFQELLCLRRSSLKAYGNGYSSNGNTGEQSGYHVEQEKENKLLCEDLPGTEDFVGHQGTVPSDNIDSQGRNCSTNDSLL
Alpha-2A adrenergic receptor (Homo sapiens), sequence (P08913 whole entry): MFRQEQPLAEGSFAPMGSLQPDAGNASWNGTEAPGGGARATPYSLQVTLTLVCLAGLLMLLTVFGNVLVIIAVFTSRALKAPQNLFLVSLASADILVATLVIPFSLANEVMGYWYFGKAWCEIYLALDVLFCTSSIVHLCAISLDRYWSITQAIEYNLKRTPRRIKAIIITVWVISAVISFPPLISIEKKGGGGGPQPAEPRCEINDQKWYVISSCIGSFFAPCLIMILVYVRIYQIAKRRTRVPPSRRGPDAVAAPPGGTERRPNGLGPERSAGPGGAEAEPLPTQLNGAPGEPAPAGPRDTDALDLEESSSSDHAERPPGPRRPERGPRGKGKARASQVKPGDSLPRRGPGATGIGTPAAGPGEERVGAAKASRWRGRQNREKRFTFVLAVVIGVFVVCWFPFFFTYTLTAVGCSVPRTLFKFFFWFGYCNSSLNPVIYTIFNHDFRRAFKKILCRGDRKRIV
Muscarinic acetylcholine receptor M3, sequence (P20309 whole entry): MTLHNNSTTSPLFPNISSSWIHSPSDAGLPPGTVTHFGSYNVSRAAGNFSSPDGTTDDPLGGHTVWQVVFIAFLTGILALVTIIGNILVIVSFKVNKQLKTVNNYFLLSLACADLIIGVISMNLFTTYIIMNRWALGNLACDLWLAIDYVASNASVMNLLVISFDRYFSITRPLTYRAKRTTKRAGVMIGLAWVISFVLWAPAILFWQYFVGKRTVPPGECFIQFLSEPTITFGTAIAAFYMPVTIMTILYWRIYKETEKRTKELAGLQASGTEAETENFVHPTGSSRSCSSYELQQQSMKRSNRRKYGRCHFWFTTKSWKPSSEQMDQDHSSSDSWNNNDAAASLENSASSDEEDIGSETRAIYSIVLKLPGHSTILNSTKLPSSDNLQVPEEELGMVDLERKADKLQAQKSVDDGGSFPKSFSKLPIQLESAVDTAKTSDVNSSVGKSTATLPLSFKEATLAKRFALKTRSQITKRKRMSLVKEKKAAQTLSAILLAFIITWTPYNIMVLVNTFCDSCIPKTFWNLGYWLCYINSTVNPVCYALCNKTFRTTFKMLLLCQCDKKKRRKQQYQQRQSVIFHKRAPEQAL
Sodium-dependent noradrenaline transporter (Homo sapiens), sequence (P23975 whole entry): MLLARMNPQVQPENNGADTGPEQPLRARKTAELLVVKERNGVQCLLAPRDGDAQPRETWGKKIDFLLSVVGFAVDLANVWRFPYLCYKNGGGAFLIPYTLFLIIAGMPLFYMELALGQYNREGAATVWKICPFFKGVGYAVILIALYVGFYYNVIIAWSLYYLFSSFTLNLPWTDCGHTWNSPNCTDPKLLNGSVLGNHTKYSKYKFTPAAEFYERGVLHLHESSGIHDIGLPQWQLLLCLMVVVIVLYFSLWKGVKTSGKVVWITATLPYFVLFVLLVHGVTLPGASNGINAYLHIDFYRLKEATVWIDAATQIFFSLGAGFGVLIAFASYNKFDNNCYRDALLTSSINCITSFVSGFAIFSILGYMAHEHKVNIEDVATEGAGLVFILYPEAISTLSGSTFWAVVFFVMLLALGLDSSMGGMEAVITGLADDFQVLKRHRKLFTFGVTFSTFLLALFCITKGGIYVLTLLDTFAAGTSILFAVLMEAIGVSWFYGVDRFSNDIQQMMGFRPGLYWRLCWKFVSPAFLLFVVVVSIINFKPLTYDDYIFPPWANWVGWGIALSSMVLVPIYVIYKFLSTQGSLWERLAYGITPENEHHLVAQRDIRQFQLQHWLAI
D(2) dopamine receptor (Homo sapiens), sequence (P14416 whole entry): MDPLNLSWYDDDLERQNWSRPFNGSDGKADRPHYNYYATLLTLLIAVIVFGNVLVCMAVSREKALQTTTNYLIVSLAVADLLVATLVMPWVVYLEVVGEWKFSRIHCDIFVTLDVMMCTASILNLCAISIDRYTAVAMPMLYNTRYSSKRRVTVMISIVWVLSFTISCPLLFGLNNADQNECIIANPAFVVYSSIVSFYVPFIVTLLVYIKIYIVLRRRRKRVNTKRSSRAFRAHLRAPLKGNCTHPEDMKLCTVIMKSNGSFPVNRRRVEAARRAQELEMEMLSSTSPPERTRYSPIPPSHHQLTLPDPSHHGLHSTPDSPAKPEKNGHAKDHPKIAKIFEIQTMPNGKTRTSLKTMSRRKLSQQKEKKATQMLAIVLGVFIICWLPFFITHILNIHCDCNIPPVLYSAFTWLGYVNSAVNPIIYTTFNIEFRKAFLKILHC

SMILES: CNC(=O)COc1cc2cc(Nc3nc(N4CCC(C(=O)N(C)C)CC4)ncc3Cl)cc(OC)c2n(C)c1=O
- residual activity [1]: 98%
- inhibition [2]: 1.38%
- residual activity [3]: 131%
- residual activity [4]: 93%
- Ki [5]: > 10 µM
- pKi [5]: < 5
- inhibition [6]: 15.1%
- residual activity [7]: 88%
- inhibition [8]: 15.4%
- residual activity [9]: 100%
- inhibition [10]: -2.05%
- inhibition [11]: 39.6%
- inhibition [12]: 14.6%
- residual activity [13]: 90%
- residual activity [14]: 99%
- activity at 10 µM (hERG (KCNH2)): 92% (not active)
- residual activity [15]: 90%
- inhibition [16]: 3.05%
- residual activity [17]: 83%
- residual activity [18]: 91%
- residual activity [19]: 99%
- inhibition [20]: 17.6%
- residual activity [21]: 88%
- residual activity [22]: 88%
- residual activity [23]: 74%
- inhibition [24]: 14.1%
- inhibition [25]: 4.8%
- residual activity [26]: 93%
- residual activity [27]: 89%
- residual activity [28]: 118%
- residual activity [29]: 15%
- inhibition [30]: 1.86%
- residual activity [31]: 100%
- Kd [32]: 0.00257 µM (active)
- residual activity [33]: 95%
- inhibition [34]: 38.2%
- Kd [35]: No binding
- residual activity [36]: 111%
- residual activity [37]: 79%
- residual activity [38]: 99%
- inhibition [39]: 17.4%
- residual activity [40]: 98%
- residual activity [41]: 98%
